This note sets out measurements from PubChem BioAssay (NCI).

Several values for one entry are separate records, joined by “and”; a condition that tells them apart may be missing. Equal values may be shown once.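 Five concentrations, 48 hours, 96-well plates. GI50 marks 50% less growth. TGI is the concentration that stops growth completely.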

What all share (experiment): NCI-60 cell line screen, 48 h
In assay [1] the test system is TK-10 renal.
Assay [2] has as its system KM12 colon.
For assay [3], the system named is SK-MEL-28 melanoma.
Assay [4] deals with SF-295 CNS.
Assay [5] concerns IGROV1 ovarian.
The test system of assay [6] is UACC-257 melanoma.
The subject of assay [7] is UACC-62 melanoma.
Assay [8] has as its system NCI-H226 lung.
Assay [9] deals with DU-145 prostate.
Assay [10] deals with MDA-MB-435.

As to `CC(=O)CCn1ncc(Cl)c(Cl)c1=O`, the TGI in [1] is above 100 µM; in assay [2], 41.5 µM; in [3], 27.2 µM; in assay [4] it was 33.6 µM; in assay [5], 35.9 µM; in assay [6], 31.5 µM. Besides, the TGI came out at 33.3 µM in assay [7] and 31.7 µM in assay [8].

`Nc1nc(Cl)cc(NCCCCCCCCNc2cc(Cl)nc(N)n2)n1`: the TGI in assay [1] was above 100 µM; in assay [2], 56.9 µM; in assay [3] it was above 100 µM; in assay [4] it was 92.1 µM; in assay [5] it was above 100 µM; in assay [6], above 100 µM. For the same compound, the TGI in assay [7] worked out at 95.3 µM; in [8] it was 48.5 µM.

Take `CCC12CCCN(Cc3ccccc3)C1c1c(n(C)c3ccccc13)CC2` (centres undefined): the TGI in assay [1], in assay [2], in assay [3], in assay [4], in assay [5] and in [6] was above 253 µM in each case. Moreover, the TGI in assay [7] and in assay [8] was above 253 µM each time.

`COC(=O)C(C(=O)c1ccccc1)C(C(=O)C(=O)Nc1ccc(OC)cc1OC)C(=O)C(=O)c1ccc(C)cc1` (centres undefined): the TGI in [1], in assay [2], in [3], in assay [4], in assay [5] and in assay [6] was above 100 µM throughout. Moreover, the TGI in [7] and in [8] was above 100 µM in each case.

For the compound `CN1CC(=O)N2Cc3ccccc3-n3cccc3C2C1` (centres undefined), the TGI in [1], in assay [2], in assay [3], in assay [4], in assay [5] and in [6] was above 100 µM throughout. This compound had a TGI in assay [7] above 100 µM.

Consider `Cc1cn2c(=O)c3ncn(C4OC(CO)C(O)C4O)c3n(C)c2n1` (centres undefined), for which the TGI in assay [1], in assay [2], in assay [3], in assay [4], in assay [5] and in [6] was above 100 µM throughout. Besides, the TGI in assay [7] and in assay [8] was above 100 µM each time.

Regarding `CC12C/C(=C\c3ccccc3)C(=O)C3C1CCCC32`, the TGI in assay [1], in assay [2], in [3], in assay [4], in assay [5] and in [6] was above 100 µM in each case. Besides, the TGI in assay [7] and in assay [8] was above 100 µM throughout.

For `Nc1ccc([N+](=O)[O-])cc1N=C/C=C/c1ccccc1`, the GI50 was 33.3 µM in assay [1]; 3.87 µM in [2]; 29.7 µM in [3]; 21.7 µM in assay [4]; 7.48 µM in assay [5]; 47.7 µM in [6]. Further, the GI50 in assay [7] is 11.9 µM; in assay [8], 27.8 µM; in assay [9] it was 13.9 µM. In addition, the TGI in [1] is above 100 µM; in assay [2], 51.2 µM; in assay [3] it was above 100 µM; in assay [4], above 100 µM; in assay [5], 42.7 µM; in assay [6], above 100 µM. The TGI in [7] is above 100 µM; in assay [8], above 100 µM; in assay [9], 64.9 µM.

In the case of `OC(CC1SCCCS1)c1ccccc1` (centres undefined), the TGI in assay [1], in assay [2], in assay [4], in [5], in assay [6] and in [7] was above 100 µM throughout. This compound also came in with a TGI in assay [8] above 100 µM.

On to `O=C(CCN(C(=O)O)S(=O)(=O)c1ccc(NC(=O)c2ccccc2)cc1)Nc1ccccc1`, for which the TGI in [1] is above 100 µM; in assay [2] it was above 100 µM; in [3] it was above 100 µM; in assay [4], above 100 µM; in [5], above 100 µM; in assay [6], above 86.3 µM. Besides, the TGI in assay [7] was 97.5 µM; in [8], above 100 µM.

As for `CC(C)C(CCl)NC(=O)c1cccc(C(=O)N[C@H](CCl)C(C)C)n1` (stereo in doubt), the TGI in [1], in [2], in assay [3], in assay [4], in [5] and in assay [8] was above 100 µM each time.

With `CSc1nc(=O)n(CCC#N)nc1SC`, the TGI is above 100 µM in assay [1]; above 100 µM in assay [2]; 47.8 µM in [3]; above 100 µM in [4]; above 100 µM in assay [5]; above 100 µM in assay [7]. For the same compound, the TGI is above 100 µM in assay [10], 84.2 µM in [8] and above 100 µM in assay [9].

`C#CCOc1cccc(-c2ncc3cc(NC(=O)CCl)ccc3n2)c1`: the GI50 in assay [1] was 2.6 µM; in [2], 1.61 µM; in [3], 1.98 µM; in [4] it was 3.65 µM; in assay [5], 1.8 µM; in assay [6], 2.02 µM. The GI50 is 1.52 µM in assay [7], 2.6 µM in assay [8] and 1.79 µM in assay [9]. Besides, the TGI was determined as 4.85 µM in [1]; 3.11 µM in assay [2]; 3.66 µM in assay [3]; 17 µM in assay [4]; 4.01 µM in assay [5]; 3.96 µM in assay [6]. The values for the TGI in assay [7], in [8] and in assay [9] were 3.36 µM, 8.17 µM and 3.19 µM, respectively.

`CCN(CC)CCCN1CCc2c([nH]c3ccccc23)C1c1cccnc1` (centres undefined): the TGI in [1], in assay [2], in assay [3], in [4], in [5] and in assay [6] was above 100 µM each time. The TGI in assay [7] and in [8] was above 100 µM each time.

On to `CC(C)N(C(=O)C12C3C4C1C1C4(C#N)C3C12C#N)C(C)C` (centres undefined), for which the TGI in [1], in assay [3], in [4], in [5], in [6] and in [7] was above 100 µM in each case. Besides, the TGI in [8] was above 100 µM.

As to `CC1(C)COC(C2(C)C(=O)C=C(c3ccccc3)c3ccccc32)=N1` (centres undefined), the TGI in assay [1], in assay [2], in [3], in assay [4], in assay [5] and in assay [6] was above 100 µM in each case. The TGI in assay [7] and in [8] was above 100 µM throughout.

As for `O=C1c2ccccc2C(=O)N1CCn1ccc(NC(c2ccccc2)(c2ccccc2)c2ccccc2)nc1=O`, the TGI in [1] turned out to be 69.5 µM; in assay [2], 49.1 µM; in assay [3], 32.1 µM; in assay [4], 28.8 µM; in [5], 58.4 µM; in assay [6], 34.7 µM. The TGI was found to be 26 µM in assay [7] and 34.1 µM in assay [8].

For `[N-]=[N+]=NC1(Cc2ccccc2)C(=O)c2cccc3c2N(CCC3)C1=O` (centres undefined), the TGI in [1], in assay [2], in [3], in [4], in [5] and in [6] was above 100 µM throughout. For the same compound, the TGI in [7] and in assay [8] was above 100 µM in each case.

For `CCCCOC(=O)CNC(=O)OC/C=C/C#CC#C/C=C/COC(=O)NCC(=O)OCCCC`, the GI50 in assay [1], in assay [2], in [3], in assay [4], in [5] and in assay [7] was above 100 µM each time. Besides, the TGI in assay [1] was above 100 µM; in [2], above 100 µM; in [3] it was above 100 µM; in assay [4], above 100 µM; in assay [5], above 100 µM; in assay [6], above 10 µM. The TGI in assay [7] is above 100 µM; in assay [8], above 10 µM.

Consider `O=[N+]([O-])c1cccc(C2=NN(c3ccccc3)C[N+](c3ccc(Br)cc3)=N2)c1`, for which the TGI in assay [1], in assay [2], in assay [3], in [4], in [5] and in [6] was above 100 µM each time. Further, in assay [7], the TGI is above 100 µM.

As to `O=c1/c(=C/c2ccccc2[N+](=O)[O-])sc2nnc(-c3ccco3)n12`, the TGI in assay [1] was above 100 µM; in assay [2] it was 33.4 µM; in assay [3], 57 µM; in [4], 55.5 µM; in [5] it was 56.3 µM; in assay [6] it was above 100 µM. Also, the TGI in assay [7] was above 100 µM; in assay [8], 61 µM.

Turning to `CC/C=C\C[C@H](O)C/C=C1/C(=O)C(Cl)=C[C@@H]1C/C=C\CCCC(=O)OC`, the GI50 is 0.946 µM in assay [1]; 0.387 µM in assay [2]; 0.432 µM in assay [3]; 2.4 µM in assay [4]; 0.867 µM in assay [5]; 0.27 µM in [7]. The GI50 in assay [10] was 0.404 µM; in assay [8], 0.537 µM; in assay [9] it was 0.692 µM. The TGI in assay [1] was 3.09 µM; in assay [2] it was 1.14 µM; in assay [3], 1.31 µM; in [4] it was 5.83 µM; in [5], 3.35 µM; in [7], 0.717 µM. Also, the TGI worked out at 1.22 µM in assay [10], 2.26 µM in [8] and 2.7 µM in [9].

Take `CCC(=O)CC(=O)CCC(=O)Nc1cc(C)ccc1C`: the TGI in assay [1], in [2], in assay [3], in [4], in [5] and in assay [7] was above 100 µM each time.

As for `O=C1CCC(Cl)=CC2CCCN12` (centres undefined), the TGI in assay [1], in [3], in assay [5], in [6], in assay [7] and in [8] was above 100 µM in each case.

Turning to `N#CN/C(N)=N/CO`, the TGI in [1] is above 100 µM; in assay [2] it was above 55.2 µM; in assay [3] it was above 100 µM; in assay [4] it was above 100 µM; in assay [5], above 100 µM; in assay [6] it was above 100 µM. Moreover, the TGI in assay [7] and in assay [8] was above 100 µM in each case.

Consider `CC(C)(C)NNC(=O)CCn1[nH]c(=O)c(Cl)c(Cl)c1=O`, for which the TGI in [1], in assay [2], in assay [3], in assay [4], in assay [5] and in assay [6] was above 100 µM in each case. The TGI in assay [7] and in assay [8] was above 100 µM in each case.

Turning to `COc1ccc2occ(CCC(=O)O)c2c1`, the TGI in [1], in [3], in assay [4], in assay [5], in assay [6] and in assay [7] was above 100 µM in each case.

For the compound `Clc1ccc2c(c1)[nH]c1c2nc2ccccn21`, the TGI in [1] was 31.2 µM; in assay [2], 35.7 µM and 32 µM; in assay [3], 62.4 µM and 31.3 µM; in assay [4] it was > 100 µM and 35.4 µM; in [5], 85.8 µM and > 100 µM; in [6], 89.4 µM and 32.3 µM. Moreover, the TGI in assay [8] was 44.7 µM and 63.9 µM. Moreover, in assay [4], the GI50 was > 100 µM and 15.7 µM.

With `O=C(Nc1ccn(CCO)c(=O)n1)c1ccccc1`, the TGI in [1], in assay [2], in [3], in assay [4], in assay [5] and in assay [6] was above 100 µM each time. Moreover, the TGI in [7] and in [8] was above 100 µM throughout.

Take `Cc1ccc(S(=O)(=O)N(C=O)N=C2CCN(Cc3ccccc3)CC2)cc1`: the TGI in [1], in assay [2], in [4], in [5], in assay [6] and in [7] was above 100 µM each time. Also, the TGI in [8] was above 100 µM.
